Assay results taken from paper PMC10042540, “Targeting oncogenic KRasG13C with nucleotide-based covalent inhibitors” (eLife, 2023).

Experiments:
Test in all cases: Electroporation into HeLa cells, western blot quantification
Assay type in all cases: cell-based, human
tAkt1 = settings: for tAkt mean fold change: mean of cell lysates
In short: (§1)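 HeLa cells electroporated (2×35 ms, 1000 V) with 0–300 µg recombinant full-length KRas WT or G13C constructs, washed, then recovered for 24 h at 37 °C. Lysates (10 µg protein) analysed by SDS-PAGE and fluorescent western blotting, with protein levels quantified from blot signal.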

tErk = settings: for tErk mean fold change: mean of cell lysates
In short: as §1

pcRafS338 = settings: for pcRaf mean fold change: mean of cell lysates
In short: as §1

pAktS473 = settings: for pAkt mean fold change: mean of cell lysates
In short: as §1

pErkT202/Y204 = settings: for pErk mean fold change: mean of cell lysates
In short: as §1

Q: For “KRasG13C-edaGDP: KRasG13C covalently locked with edaGDP at Cys13”, which tAkt fold change (tAkt1; 50 µg, Cell lysate 1) is on record?
A: 0.65

Q: And the tAkt fold change (tAkt1; 50 µg, Cell lysate 2)?
A: 1.23

Q: And the tAkt fold change (tAkt1; 50 µg, Cell lysate 3)?
A: 1.06

Q: What about the “tAkt mean fold change” value (tAkt1; 50 µg) of the same substance?
A: 0.98

Q: And the tAkt fold change (tAkt1; 100 µg, Cell lysate 1)?
A: 0.92

Q: And the tAkt fold change (tAkt1; 100 µg, Cell lysate 2)?
A: 1.65

Q: And the tAkt fold change (tAkt1; 100 µg, Cell lysate 3)?
A: 0.97

Q: What about the “tAkt mean fold change” value (tAkt1; 100 µg) of the same substance?
A: 1.18

Q: What about the tAkt fold change (tAkt1; 200 µg, Cell lysate 1) of the same substance?
A: 1.06

Q: What about the tAkt fold change (tAkt1; 200 µg, Cell lysate 2) of the same substance?
A: 1.22

Q: And the tAkt fold change (tAkt1; 200 µg, Cell lysate 3)?
A: 0.78

Q: And the “tAkt mean fold change” value (tAkt1; 200 µg)?
A: 1.02

Q: What about the tAkt fold change (tAkt1; 300 µg, Cell lysate 1) of the same substance?
A: 0.92

Q: What about the tAkt fold change (tAkt1; 300 µg, Cell lysate 2) of the same substance?
A: 0.97

Q: And the tAkt fold change (tAkt1; 300 µg, Cell lysate 3)?
A: 0.68

Q: What about the “tAkt mean fold change” value (tAkt1; 300 µg) of the same substance?
A: 0.86

Q: And the tErk fold change (tErk; 50 µg, Cell lysate 1)?
A: 0.84

Q: And the tErk fold change (tErk; 50 µg, Cell lysate 2)?
A: 2.08

Q: What about the tErk fold change (tErk; 50 µg, Cell lysate 3) of the same substance?
A: 0.64

Q: What about the “tErk mean fold change” value (tErk; 50 µg) of the same substance?
A: 1.19

Q: And the tErk fold change (tErk; 100 µg, Cell lysate 1)?
A: 0.91

Q: What about the tErk fold change (tErk; 100 µg, Cell lysate 2) of the same substance?
A: 1.86

Q: What about the tErk fold change (tErk; 100 µg, Cell lysate 3) of the same substance?
A: 0.78

Q: And the “tErk mean fold change” value (tErk; 100 µg)?
A: 1.18

Q: What about the tErk fold change (tErk; 200 µg, Cell lysate 1) of the same substance?
A: 1.12

Q: What about the tErk fold change (tErk; 200 µg, Cell lysate 2) of the same substance?
A: 1.76

Q: What about the tErk fold change (tErk; 200 µg, Cell lysate 3) of the same substance?
A: 0.74

Q: What about the “tErk mean fold change” value (tErk; 200 µg) of the same substance?
A: 1.21

Q: What about the tErk fold change (tErk; 300 µg, Cell lysate 1) of the same substance?
A: 1.26

Q: And the tErk fold change (tErk; 300 µg, Cell lysate 2)?
A: 1.23

Q: And the tErk fold change (tErk; 300 µg, Cell lysate 3)?
A: 0.72

Q: And the “tErk mean fold change” value (tErk; 300 µg)?
A: 1.07

Q: What about the pcRaf fold change (pcRafS338; 50 µg, Cell lysate 1) of the same substance?
A: 0.75

Q: And the pcRaf fold change (pcRafS338; 50 µg, Cell lysate 2)?
A: 1.33

Q: What about the pcRaf fold change (pcRafS338; 50 µg, Cell lysate 3) of the same substance?
A: 0.84

Q: What about the “pcRaf mean fold change” value (pcRafS338; 50 µg) of the same substance?
A: 0.97

Q: What about the pcRaf fold change (pcRafS338; 100 µg, Cell lysate 1) of the same substance?
A: 0.89

Q: What about the pcRaf fold change (pcRafS338; 100 µg, Cell lysate 2) of the same substance?
A: 0.78

Q: What about the pcRaf fold change (pcRafS338; 100 µg, Cell lysate 3) of the same substance?
A: 1.40

Q: And the “pcRaf mean fold change” value (pcRafS338; 100 µg)?
A: 1.02

Q: What about the pcRaf fold change (pcRafS338; 200 µg, Cell lysate 1) of the same substance?
A: 0.74

Q: What about the pcRaf fold change (pcRafS338; 200 µg, Cell lysate 2) of the same substance?
A: 0.88

Q: And the pcRaf fold change (pcRafS338; 200 µg, Cell lysate 3)?
A: 1.21

Q: And the “pcRaf mean fold change” value (pcRafS338; 200 µg)?
A: 0.94

Q: What about the pcRaf fold change (pcRafS338; 300 µg, Cell lysate 1) of the same substance?
A: 0.57

Q: What about the pcRaf fold change (pcRafS338; 300 µg, Cell lysate 2) of the same substance?
A: 0.97

Q: And the pcRaf fold change (pcRafS338; 300 µg, Cell lysate 3)?
A: 1.13

Q: What about the “pcRaf mean fold change” value (pcRafS338; 300 µg) of the same substance?
A: 0.89

Q: What about the pAkt fold change (pAktS473; 50 µg, Cell lysate 1) of the same substance?
A: 0.89

Q: And the pAkt fold change (pAktS473; 50 µg, Cell lysate 2)?
A: 1.23

Q: And the “pAkt mean fold change” value (pAktS473; 50 µg)?
A: 0.54

Q: And the pAkt fold change (pAktS473; 100 µg, Cell lysate 1)?
A: 0.28

Q: What about the pAkt fold change (pAktS473; 100 µg, Cell lysate 2) of the same substance?
A: 0.69

Q: And the pAkt fold change (pAktS473; 100 µg, Cell lysate 3)?
A: 1.01

Q: And the “pAkt mean fold change” value (pAktS473; 100 µg)?
A: 0.66

Q: And the pAkt fold change (pAktS473; 200 µg, Cell lysate 1)?
A: 0.45

Q: And the pAkt fold change (pAktS473; 200 µg, Cell lysate 2)?
A: 0.95

Q: What about the pAkt fold change (pAktS473; 200 µg, Cell lysate 3) of the same substance?
A: 0.56

Q: What about the “pAkt mean fold change” value (pAktS473; 200 µg) of the same substance?
A: 0.65

Q: And the pAkt fold change (pAktS473; 300 µg, Cell lysate 1)?
A: 0.63

Q: What about the pAkt fold change (pAktS473; 300 µg, Cell lysate 2) of the same substance?
A: 0.97

Q: What about the pAkt fold change (pAktS473; 300 µg, Cell lysate 3) of the same substance?
A: 1.17

Q: And the “pAkt mean fold change” value (pAktS473; 300 µg)?
A: 0.92

Q: What about the pErk fold change (pErkT202/Y204; 50 µg, Cell lysate 1) of the same substance?
A: 0.82

Q: And the pErk fold change (pErkT202/Y204; 50 µg, Cell lysate 2)?
A: 0.70

Q: What about the pErk fold change (pErkT202/Y204; 50 µg, Cell lysate 3) of the same substance?
A: 0.80

Q: What about the “pErk mean fold change” value (pErkT202/Y204; 50 µg) of the same substance?
A: 0.77

Q: And the pErk fold change (pErkT202/Y204; 100 µg, Cell lysate 1)?
A: 1.10

Q: And the pErk fold change (pErkT202/Y204; 100 µg, Cell lysate 2)?
A: 0.77

Q: What about the pErk fold change (pErkT202/Y204; 100 µg, Cell lysate 3) of the same substance?
A: 0.86

Q: What about the “pErk mean fold change” value (pErkT202/Y204; 100 µg) of the same substance?
A: 0.91

Q: And the pErk fold change (pErkT202/Y204; 200 µg, Cell lysate 1)?
A: 2.08

Q: And the pErk fold change (pErkT202/Y204; 200 µg, Cell lysate 2)?
A: 0.84

Q: And the pErk fold change (pErkT202/Y204; 200 µg, Cell lysate 3)?
A: 1.10

Q: What about the “pErk mean fold change” value (pErkT202/Y204; 200 µg) of the same substance?
A: 1.34

Q: What about the pErk fold change (pErkT202/Y204; 300 µg, Cell lysate 1) of the same substance?
A: 2.38

Q: What about the pErk fold change (pErkT202/Y204; 300 µg, Cell lysate 2) of the same substance?
A: 0.86

Q: What about the pErk fold change (pErkT202/Y204; 300 µg, Cell lysate 3) of the same substance?
A: 1.58

Q: What about the “pErk mean fold change” value (pErkT202/Y204; 300 µg) of the same substance?
A: 1.61
